Read-outs that look alike come from different tables or passages of the source. Values belong to the compound of their own block, whether it stands above or below them.
Columns and labels:
[1] = test system: HIV-1 (HIV-1 RF, HIV-1 NL4-3) in CEM-SS / MT-2 cells; assay: Cytopathic effect (CPE) inhibition assay (XTT/MTT dye reduction); type: cell-based
Experimental: T-cell lines, CEM-SS, and MT-2, and viruses HIV-1 RF and HIV-1 NL4-3 (pNL4-3) were obtained from the National Institutes of Health (AIDS Research and Reference Reagent Program, Bethesda, Md.).
Cytopathic Effect (CPE) Inhibition Assays
The ability of compounds to protect cells against HIV infection was measured by the […] dye reduction method, essentially as described (See Pauwels, R. Balzarini, J. Baba, M. Snoeck, R. Schols, D. Herdewijn, P. Desmyter, J. and De Clercq, E. 1988, “Rapid and automated tetrazolium-based colorimetric assay for the detection of anti-HIV compounds,”. J Virol. Methods., 20: 309–321 and Weislow, O. S. Kiser, R. Fine, D. L. Bader, J. Shoemaker, R. H. and Boyd, M. R. 1989. “New soluble-formazan assay for HIV-1 cytopathic effects: application to high-flux screening of synthetic and natural products for AIDS-antiviral activity”. J. Natl. Cancer Inst. 81:577–586). Subject cells were infected with test virus at an moi of 0.025 to 0.819 or mock infected with medium only and added at 2×10^4 cells per well into 96 well plates containing half-log dilutions of test compounds. Six days later, 50 μl of XTT (1 mg/ml XTT tetrazolium, 0.02 nM phenazine methosulfate) was added to the wells and the plate was reincubated for four hours. Viability, as determined by the amount of XTT formazan produced, was quantified spectrophotometrically by absorbance at 450 nm. Data from CPE assays were expressed as the percent of formazan produced in compound-treated cells compared to formazan produced in wells of uninfected, compound-free cells. The fifty percent effective concentration (EC50) was calculated as the concentration of compound that effected an increase in the percentage of formazan production in infected, compound-treated cells to 50% of that produced by uninfected, compound-free cells. The 50% cytotoxicity concentration (CC50) was calculated as the concentration of compound that decreased the percentage of formazan produced in uninfected, compound-treated cells to 50% of that produced in uninfected, compound-free cells. The therapeutic index was calculated by dividing the cytotoxicity (CC50) by the antiviral activity (EC50).

[2] = molecular target: T1, HIV-1 protease (Q7S mutant form) (Human immunodeficiency virus type 1 group M subtype B, UniProt P04585, Q495S); assay: HIV-1 Protease RET assay; type: biochemical; conditions: Ki, unit inferred
T1 construct: made in house
How it was run: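 Q7S HIV-1 protease, refolded from urea, 2 nM active dimer with 5 μM EDANS/DABCYL peptide cleaved at Tyr-Pro; fluorescence 340/490 nm. 12 min at 37 °C in 0.1M sodium acetate pH 4.8, 1M NaCl, 10% DMSO. Ki from Morrison tight-binding fit.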

[3] = Human immunodeficiency virus 1, NL43, unit inferred, read-out: EC50
[4] = Human immunodeficiency virus 1, NL43, read-out: Ave CPE EC50

SMILES: Cc1ccccc1CNC(=O)[C@H]1N(C(=O)[C@@H](O)[C@H](Cc2ccccc2)NC(=O)[C@@H](NC(=O)COc2cccc(N(C)C)c2)C(C)C)CSC1(C)C
EC50 [1, 3]: 0.014 µM | Ki [2]: ≤ 0.0001 µM

SMILES: Cc1ccccc1CNC(=O)[C@@H]1N(C(=O)[C@@H](O)[C@H](Cc2ccccc2)NC(=O)c2cccc(O)c2C)CSC12CCCC2
EC50 [1, 3]: 0.04 µM | Ki [2]: 0.00034 µM

SMILES: C=CCNC(=O)[C@H]1N(C(=O)[C@@H](O)[C@H](Cc2ccccc2)NC(=O)[C@@H](NC(=O)c2ccc3ccccc3n2)C(C)C)CSC1(C)C
EC50 [1, 3]: 0.041 µM | Ki [2]: ≤ 0.0001 µM

SMILES: Cc1ccccc1CNC(=O)[C@H]1N(C(=O)[C@@H](O)[C@H](Cc2ccccc2)NC(=O)[C@@H](NC(=O)c2ccccn2)C(C)C)CSC1(C)C
EC50 [1, 3]: 0.126 µM | Ki [2]: ≤ 0.0001 µM

SMILES: Cc1ccc(C(=O)N[C@@H](Cc2ccccc2)[C@H](O)C(=O)N2CSC(C)(C)[C@H]2C(=O)NCc2cccs2)c(C)c1O
EC50 [1, 3]: 0.332 µM | Ki [2]: 0.00039 µM

SMILES: Cc1ccc(C(=O)N[C@@H](Cc2ccccc2)[C@H](O)C(=O)N2CSC(C)(C)[C@H]2C(=O)NCc2ccco2)c(C)c1O
EC50 [1, 3]: 0.488 µM | Ki [2]: 0.002 µM

SMILES: Cc1ccccc1CCC(=O)[C@H]1N(C(=O)[C@@H](O)[C@H](Cc2ccccc2)NC(=O)O[C@H]2CCOC2)CSC1(C)C
EC50 [1, 3]: 0.573 µM | Ki [2]: 0.00076 µM

SMILES: CC(=O)Oc1cccc(C(=O)N[C@@H](CSc2ccccc2)[C@H](O)CN2C[C@H]3CCCC[C@H]3C[C@H]2C(=O)NCc2ccccc2C)c1C
EC50 [1, 3]: 0.672 µM | Ki [2]: 0.109 µM

SMILES: Cc1ccccc1CNC(=O)[C@@H]1C[C@@H]2CCCC[C@@H]2CN1C[C@@H](O)[C@H](CSc1ccccc1)NC(=O)c1cccc(O)c1C
EC50 [1, 3]: 0.901 µM | Ki [2]: 0.0064 µM

SMILES: CC(=O)C(=O)N[C@@H](Cc1ccccc1)[C@H](O)C(=O)N1CSC(C)(C)[C@H]1C(=O)NCc1ccccc1C
EC50 [1, 3]: ≥ 1 µM | Ki [2]: 0.0047 µM

SMILES: Cc1ccccc1CNC(=O)[C@H]1N(C(=O)[C@@H](O)[C@H](Cc2ccccc2)NC(=O)CBr)CSC1(C)C
EC50 [1, 3]: ≥ 1 µM | Ki [2]: 0.00078 µM

SMILES: Cc1cccc(C)c1OCC(=O)N[C@@H](Cc1ccccc1)[C@H](O)C(=O)N1CSC(C)(C)[C@H]1C(=O)NC[C@H]1CCCO1
EC50 [1, 3]: ≥ 1 µM | Ki [2]: 0.0042 µM

SMILES: CCN1CCc2c(C(=O)N[C@@H](Cc3ccccc3)[C@H](O)C(=O)N3CSC(C)(C)[C@H]3C(=O)NCc3ccccc3C)cccc21
EC50 [1, 3]: 1.01 µM | Ki [2]: 0.0067 µM

SMILES: Cc1ccccc1CNC(=O)[C@H]1N(C(=O)[C@@H](O)[C@H](Cc2ccccc2)NC(=O)COc2c(C)cc(Cl)cc2C)CSC1(C)C
EC50 [1, 3]: 1.11 µM | Ki [2]: 0.00038 µM

SMILES: Cc1ccc(C(=O)N[C@@H](Cc2ccccc2)[C@H](O)C(=O)N2CSC(C)(C)C2C(=O)N[C@@H]2C=CCCC2)c(C)c1O (stereo partly shown)
EC50 [1, 3]: 1.16 µM | Ki [2]: 0.00013 µM

SMILES: Cc1c(O)cccc1C(=O)N[C@@H](Cc1ccccc1)[C@H](O)C(=O)N1CSC(C)(C)[C@H]1C(=O)N1CCc2ccccc2C1
EC50 [1, 3]: 1.18 µM | Ki [2]: 0.009 µM

SMILES: CC1(C)SCN(C(=O)[C@@H](O)[C@H](Cc2ccccc2)NC(=O)[C@@H]2CCCO2)[C@@H]1C(=O)N[C@H]1CCCc2ccccc21
EC50 [1, 3]: 1.19 µM | Ki [2]: 0.0043 µM

SMILES: Cc1ccccc1CNC(=O)[C@H]1N(C(=O)[C@@H](O)C(Cc2ccccc2)NC(=O)CNc2c(C)cccc2C)CSC1(C)C (stereo partly shown)
EC50 [1, 3]: 1.22 µM | Ki [2]: 0.0023 µM

SMILES: Cc1c(O)cccc1C(=O)N[C@@H](Cc1ccccc1)[C@H](O)C(=O)N1CSC(C)(C)[C@H]1C(=O)NC1CCC(C(C)(C)C)CC1 (stereo partly shown)
EC50 [1, 3]: 1.23 µM | Ki [2]: 0.026 µM

SMILES: CC1(C)SCN(C(=O)[C@@H](O)[C@H](Cc2ccccc2)NC(=O)CSc2nc[nH]n2)[C@@H]1C(=O)N[C@H]1CCc2ccccc21
EC50 [1, 3]: 1.23 µM | Ki [2]: 0.0039 µM

SMILES: CC1(C)SCN(C(=O)[C@@H](O)[C@H](Cc2ccccc2)NC(=O)[C@@H]2CCCO2)[C@@H]1C(=O)N[C@H]1CCOc2ccccc21
EC50 [1, 3]: 1.25 µM | Ki [2]: 0.0075 µM

SMILES: CC1(C)SCN(C(=O)[C@@H](O)[C@H](Cc2ccccc2)NC(=O)CSc2nc[nH]n2)[C@@H]1C(=O)N[C@@H]1C=CCCC1
EC50 [1, 3]: 1.28 µM | Ki [2]: 0.0061 µM

SMILES: Cc1ccccc1CNC(=O)[C@H]1N(C(=O)[C@@H](O)[C@H](Cc2ccccc2)NC(=O)OC(C)(C)C)CSC1(C)C
EC50 [1, 3]: 1.29 µM | Ki [2]: 0.003 µM

SMILES: Cc1c(O)cccc1C(=O)N[C@@H](Cc1ccccc1)[C@H](O)C(=O)N1CSC(C)(C)[C@H]1C(=O)N[C@H]1CC1c1ccccc1 (stereo partly shown)
EC50 [1, 3]: 1.33 µM | Ki [2]: 0.0172 µM

SMILES: Cc1cccc(C)c1OCC(=O)N[C@@H](Cc1ccccc1)[C@H](O)C(=O)N1CSC(C)(C)[C@H]1C(=O)NCc1ccccc1C(F)(F)F
EC50 [1, 3]: 1.95 µM | Ki [2]: 0.0014 µM

SMILES: CC1(C)SCN(C(=O)[C@@H](O)[C@H](Cc2ccccc2)NC(=O)c2cccc3c2CCN3)[C@@H]1C(=O)N[C@@H]1CCOc2ccccc21
EC50 [1, 3]: 1.96 µM | Ki [2]: 0.0074 µM

SMILES: Cc1ccccc1CNC(=O)[C@H]1N(C(=O)[C@@H](O)[C@H](Cc2ccccc2)NC(=O)C(F)(F)F)CSC1(C)C
EC50 [1, 3]: 2.2 µM | Ki [2]: 0.0171 µM

SMILES: Cc1ccccc1CNC(=O)[C@H]1N(C(=O)[C@@H](O)[C@H](Cc2ccccc2)NC(=O)OC2CC3CCC2C3)CSC1(C)C (stereo partly shown)
EC50 [1, 3]: 2.88 µM | Ki [2]: 0.0094 µM

SMILES: CC1(C)SCN(C(=O)[C@@H](O)[C@H](Cc2ccccc2)NC(=O)CSc2nc[nH]n2)[C@@H]1C(=O)NCC#N
EC50 [1, 3]: ≥ 3.2 µM | Ki [2]: 0.028 µM

SMILES: Cc1ccccc1CNC(=O)C1N(C(=O)[C@@H](O)[C@H](Cc2ccccc2)NC(=O)CSc2nc3ccccc3[nH]2)CSC1(C)C (stereo partly shown)
EC50 [1, 3]: ≥ 3.2 µM | Ki [2]: 0.0174 µM

SMILES: Cc1ccccc1CNC(=O)C1N(C(=O)[C@@H](O)[C@H](Cc2ccccc2)NC(=O)CSc2nncn2C)CSC1(C)C (stereo partly shown)
EC50 [1, 3]: ≥ 3.2 µM | Ki [2]: 0.082 µM

SMILES: Cc1ccccc1CNC(=O)[C@H]1N(C(=O)[C@@H](O)[C@H](Cc2ccccc2)NC(=O)COc2cccc3ccccc23)CSC1(C)C
EC50 [1, 3]: ≥ 3.2 µM | Ki [2]: 0.0058 µM

SMILES: Cc1ccccc1CNC(=O)[C@H]1N(C(=O)[C@@H](O)[C@H](Cc2ccccc2)NC(=O)COc2cccc(N3CCOCC3)c2)CSC1(C)C
EC50 [1, 3]: ≥ 3.2 µM | Ki [2]: 0.0044 µM

SMILES: Cc1ccccc1CNC(=O)[C@@H]1C2CCC(CC2)N1C(=O)[C@@H](O)[C@H](Cc1ccccc1)NC(=O)c1cccc(O)c1C
EC50 [1, 3]: ≥ 3.2 µM | Ki [2]: 0.0098 µM

SMILES: CCCNC(=O)[C@H]1N(C(=O)[C@@H](O)[C@H](Cc2ccccc2)NC(=O)OCCC)CSC1(C)C
EC50 [1, 3]: ≥ 3.2 µM | Ki [2]: 0.0127 µM

SMILES: CCCC(C)C(=O)NC(Cc1ccccc1)[C@H](O)C(=O)N1CSC(C)(C)C1C(=O)NCc1ccccc1C (stereo partly shown)
EC50 [1, 3]: ≥ 3.2 µM | Ki [2]: 0.0126 µM

SMILES: CCC(=O)NC(Cc1ccccc1)[C@H](O)C(=O)N1CSC(C)(C)C1C(=O)NCc1ccccc1C (stereo partly shown)
EC50 [1, 3]: ≥ 3.2 µM | Ki [2]: 0.0084 µM

SMILES: C=CC(C)COC(=O)NC(Cc1ccccc1)[C@H](O)C(=O)N1CSC(C)(C)C1C(=O)NCc1ccccc1C (stereo partly shown)
EC50 [1, 3]: ≥ 3.2 µM | Ki [2]: 0.0151 µM

SMILES: Cc1ccccc1CNC(=O)[C@@H]1CC(F)(F)CN1C(=O)[C@@H](O)[C@H](Cc1ccccc1)NC(=O)C1C(C)C(=O)ON1C (stereo partly shown)
EC50 [1, 3]: ≥ 3.2 µM | Ki [2]: 0.0036 µM

SMILES: Cc1ccccc1CNC(=O)[C@H]1C2CCC(C2)N1C(=O)[C@@H](O)[C@H](Cc1ccccc1)NC(=O)c1cccc(O)c1C (stereo partly shown)
EC50 [1, 3]: 4 µM | Ki [2]: 0.0184 µM

SMILES: Cc1ccccc1CNC(=O)[C@H]1N(C(=O)[C@@H](O)[C@H](Cc2ccccc2)NC(=O)OCc2ccccc2)CSC1(C)C
EC50 [1, 3]: 4.22 µM | Ki [2]: 0.0014 µM

SMILES: Cc1ccccc1CNC(=O)[C@@H]1CCCCN1C(=O)[C@@H](O)[C@H](Cc1ccccc1)NC(=O)c1cccc(O)c1C
EC50 [1, 3]: 5.87 µM | Ki [2]: 0.0517 µM

SMILES: COc1cc2c(cc1OC)CN(C(=O)[C@H]1N(C(=O)[C@@H](O)[C@H](Cc3ccccc3)NC(=O)c3cccc(O)c3C)CSC1(C)C)CC2
EC50 [1, 3]: ≥ 10 µM | Ki [2]: 0.046 µM

EC50 [1, 4]: 0.013 µM
SMILES: Cc1c(O)cccc1C(=O)N[C@@H](Cc1cccc(F)c1)[C@H](O)C(=O)N1CC(F)(F)C(C)(C)[C@H]1C(=O)NCC(C)C [Example D3, (S)-4,4-Difluoro-1-[(2S,3S)-4-(3-fluoro-phenyl)-2-hydroxy-3-(3-hydroxy-2-methyl-benzoylamino)-butyryl]-3,3-dimethyl-pyrrolidine-2-carboxylic acid is butyl-amide]

EC50 [1, 4]: 0.018 µM
SMILES: Cc1cc(O)c(C)c(C(=O)N[C@@H](Cc2ccccc2)[C@H](O)C(=O)N2CC(F)(F)C(C)(C)[C@H]2C(=O)NCC(F)(F)F)c1 [Example D6, (S)-4,4-Difluoro-1-[(2S,3S)-2-hydroxy-3-(3-hydroxy-2,5-dimethyl-benzoylamino)-4-phenyl-butyryl]-3,3-dimethyl-pyrrolidine-2-carboxylic acid (2,2,2-trifluoro-ethyl)-amide]

— patent US7094909B2, “HIV protease inhibitors, compositions containing the same, their pharmaceutical uses and materials for their synthesis” (priority 2001, dated 2006)
